Experiments:
RPMI8226 cells = assay: Cell cycle distribution by flow cytometry; type: cell-based
Method: Cell cycle arrest is a shared consequence of MTAs treatment. The effects of cell cycle distribution were determined in RPMI8226 cells treated for 6 and 18 hours with a range of concentrations of the molecules. The cells were stained with propidium iodide and cell cycle distribution was measured using a cytoFLEX flow cytometer.

[1] = tested on: colchicine binding site on tubulin protein; assay: EBI competition assay, NALM6 cells; type: cell-based
MCF7-VP cells = assay: XTT cytotoxicity, MCF7-VP; type: cell-based
How it was run: (§1)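 Cells are exposed to compound and viability is scored by XTT.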

MM1.R cells = assay: XTT cytotoxicity, MM1.R; type: cell-based; conditions: MM.1R; MM1.R, multiple myeloma, dexamethasone resistant; read-out: IC50
How it was run: as §1

MES-SA/DX5 cells = assay: XTT cytotoxicity, MES-SA/DX5; type: cell-based
How it was run: as §1

RPMI-MR20 cells = assay: XTT cytotoxicity, RPMI-MR20; type: cell-based
How it was run: as §1

NCI-H69 VCR/R cells = assay: XTT cytotoxicity, NCI-H69 VCR/R; type: cell-based
Method: (§2) The cytotoxic activity of the novel family was evaluated against various tumor cells, including myeloma cells, acute lymphoblastic leukemia cells, acute monocytic leukemia cells, chronic myelogenous leukemia cells, pancreatic cancer cells, breast cancer cells, uterine sarcoma cells, cervix adenocarcinoma cells, ovary cancer cells, melanoma cells, osteosarcoma cells, prostate cancer cells, lung cancer cells, neuroblastoma cells and colorectal adenocarcinoma cells by XTT assay.

RPMI8226 myeloma cells = assay: Xenograft murine myeloma model, antitumor efficacy; type: in vivo, mice
Method: In vivo anti-cancer efficacy of the molecules was evaluated in a xenograft murine myeloma model. Male SCID mice (6-8 weeks old) were maintained in accordance with Institutional Animal Care Use Committee guidelines. Mice were housed in the Animal Research Facility of Ariel University and experiments were performed in accordance with approved protocols. […] Mice were sacrificed when mean tumor volume of vehicle treated group reached 1500 mm3, or mice appeared moribund to prevent unnecessary morbidity. Mean tumor volume represents the average of tumor volume in each treatment group during the experiment. The weight of the tumors was measured at the end of the experiment and expressed as mean tumor weight per group. Body weight is expressed as mean body mice weight per group. The individual relative tumor volume (RTV) was defined as Vx/V1, where Vx is the mean tumor volume in mm3 at a given time and V1 at the start of treatment. Relative tumor volume is determined by calculating RTV (%) (mean RTV of treated group)/(mean RTV of control group)). Relative tumor volume inhibition is determined by calculating RTVI (%) (1-RTV %)

NALM6 cells = assay: XTT cytotoxicity, NALM6; type: cell-based; conditions: Homo sapiens, NALM-6; NALM6, acute lymphoblastic leukemia, non-resistant; read-out: IC50
A2780 cells = assay: XTT cytotoxicity, A2780; type: cell-based; conditions: Homo sapiens; A2780, ovarian carcinoma, non-resistant
Method: as §2

[2] = tested on: colchicine binding site on tubulin protein; assay: EBI competition assay, HELA cells; type: cell-based
RPMI 8226 cells = assay: XTT cytotoxicity, RPMI 8226; type: cell-based; conditions: Homo sapiens; RPMI 8226, multiple myeloma, non-resistant; read-out: IC50
How it was run: as §1

RPMI-DOX40 cells = assay: XTT cytotoxicity, RPMI-DOX40; type: cell-based
How it was run: as §1

N6/ADR cells = assay: XTT cytotoxicity, N6/ADR; type: cell-based
HUVEC cells [3] = assay: HUVEC wound scratch-healing migration assay; type: cell-based, human
Text: During angiogenesis, endothelial cells proliferate and migrate chemotactically towards angiogenic signals secreted by tumor cells.

[4] = tested on: metastatic breast adenocarcinoma cells; assay: XTT cytotoxicity, metastatic breast adenocarcinoma cells; type: cell-based; conditions: highest of the range
Method: as §2

HUVEC cells [5] = assay: HUVEC tube formation on Matrigel; type: cell-based, human
Method: Endothelial cells seeded on Matrigel are able to form three-dimensional capillary structures with a lumen resembling the first angiogenesis steps.
The analysis of anti-angiogenic effect was performed by exposing HUVEC cells to the compounds and seeding them on Matrigel matrix for 4 hours. During this time, control group formed an extensive network lumen-like structure as compared to partially disorganized cells treated with lower doses of SMS077 and SMS182 and disorganized and rounded cells treated with higher doses of the molecules.

HUVEC cells [6] = assay: Disruption of pre-formed HUVEC capillary-like tubes; type: cell-based, human; conditions: tubes formed 4 hours, then 2 hours exposure
Method: The analysis of the anti-vascular effect was performed by seeding HUVEC cells on Matrigel matrix, and incubated them until formation of capillary-like tubes, reminiscent of newly formed vessels after 4 hours.

RPMI-LR5 cells = assay: XTT cytotoxicity, RPMI-LR5; type: cell-based
How it was run: as §1

[7] = Water solubility (microscope images); type: physicochemical; conditions: compared with benzene, furan, thiophene, thiazole or pyridine analogues
Text: Solubility of the synthesized molecules was compared to equivalent molecules having a benzene, furan, thiophene, thiazole or pyridine group instead of oxazole group (Table 2).

[8] = tested on: colchicine binding site on tubulin protein; assay: EBI competition assay, RPMI-8226 cells; type: cell-based; conditions: RPMI-8226 living cells

CCCCCOC(=O)c1[nH]c2c(c1C)C(=O)CC(c1ncco1)C2 (stereo not shown) [SMS077, pentyl 3-methyl-6-(oxazol-2-yl)-4-oxo-4,5,6,7-tetrahydro-1H-indole-2-carboxylate]
cell cycle arrest (RPMI8226 cells; 6 hours, IC50, IC50x2.5 and IC50x5 concentrations): cell cycle arrest in G2M phase
subG0 phase (RPMI8226 cells; 18 hours of treatment): increased in subG0 phase
binding to the colchicine binding site [1]: bound to the colchicine binding site
IC50 (MCF7-VP cells; Homo sapiens, MCF7-VP, breast adenocarcinoma, MRP overexpression): 560 nM
IC50 ratio between resistant and non-resistant cells (MCF7-VP cells; MCF7-VP / MCF7): 1.474
sensitivity of resistant subline vs parental cells (MCF7-VP cells; MCF7-VP vs MCF7): same sensitivity
IC50 (MM1.R cells): 36 nM
IC50 (MES-SA/DX5 cells; Homo sapiens, MES-SA/DX5, uterine sarcoma, P-gp overexpression): 65 nM
IC50 ratio between resistant and non-resistant cells (MES-SA/DX5 cells; MES-SA/DX5 / MES-SA): 0.508
IC50 (RPMI-MR20 cells; RPMI-MR20, mitoxantrone resistant, read-out: IC50): 23 nM
IC50 ratio between resistant and non-resistant cells (RPMI-MR20 cells; RPMI-MR20 / RPMI 8226): 0.885
IC50 (NCI-H69 VCR/R cells; Homo sapiens, NCI-H69 VCR/R, vincristine resistant): 48 nM
IC50 ratio between resistant and non-resistant cells (NCI-H69 VCR/R cells; NCI-H69 VCR/R / NCI-H69): 0.294
resistance of cells to treatment (NCI-H69 VCR/R cells; NCI-H69 VCR/R lung carcinoma cells): resistant to vincristine but not to SMS077 treatment
decrease of tumor volume as compared to vehicle at the same day (RPMI8226 myeloma cells; day 8, intraperitoneally): 0%
decrease of tumor volume as compared to vehicle at the same day (RPMI8226 myeloma cells; day 11, intraperitoneally): 40%
decrease of tumor volume as compared to vehicle at the same day (RPMI8226 myeloma cells; day 25, intraperitoneally): 52%
growth inhibition rate (tumor weight at end of experiment) (RPMI8226 myeloma cells; intraperitoneally): 54%
IC50 (NALM6 cells): 19 nM
IC50 (A2780 cells): 16 nM
binding to the colchicine binding site [2]: bound to the colchicine binding site
IC50 (RPMI 8226 cells): 26 nM
IC50 (RPMI-DOX40 cells; RPMI-DOX40, multiple myeloma, P-gp overexpression, read-out: IC50): 25 nM
IC50 ratio between resistant and non-resistant cells (RPMI-DOX40 cells; RPMI-DOX40 / RPMI 8226): 0.962
sensitivity of resistant subline vs parental cells (RPMI-DOX40 cells; RPMI-Dox40 vs RPMI8226 (RPMI-S)): no difference in their sensitivity
IC50 ratio between resistant and non-resistant cells (N6/ADR cells; N6/ADR / NALM6): 0.895
IC50 (N6/ADR cells; N6/ADR, acute lymphoblastic leukemia, P-gp overexpression, read-out: IC50): 17 nM
wound healing density (HUVEC migration) (HUVEC cells [3]): decreased wound healing density in a dose and time dependent manner
IC50 [4]: 426 nM
inhibition of tubule formation (HUVEC cells [5]; 4 hours): dose dependent inhibition of tubule formation
concentration at which tubule formation was significantly inhibited (HUVEC cells [5]; 4 hours of treatment): 75 nM
disruption of pre-formed capillary-like tube network (HUVEC cells [6]): disrupted the integrity of the network in a dose dependent manner
IC50 (RPMI-LR5 cells; RPMI-LR5, multiple myeloma, melphalan resistant, read-out: IC50): 19 nM
IC50 ratio between resistant and non-resistant cells (RPMI-LR5 cells; RPMI-LR5 / RPMI 8226): 0.731
sensitivity of resistant subline vs parental cells (RPMI-LR5 cells; RPMI-LR5 vs RPMI8226 (RPMI-S)): no difference in their sensitivity
water solubility [7]: better water solubility
prevention of covalent binding of EBI to the colchicine binding site [8]: prevented the covalent binding of EBI to the colchicine binding site

Reference: patent US20260226037A1, “MICROTUBULE TARGETING AGENTS” (ARIEL SCIENTIFIC INNOVATIONS LTD., priority 2022, published 2026)
